Reference: PubChem BioAssay (NCI)
Where “and” joins values, the source holds several entries; their conditions need not be identical. Equal values may be shown once.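 Values below derive from 48-hour exposures of cells grown in 96-well plates, with endpoints linearly interpolated between the two concentrations bracketing the appropriate inhibition level. GI50: concentration for 50% inhibition of growth. TGI marks complete inhibition of growth.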

Experiments:
Test in all cases: NCI-60 cell line screen, 48 h
[1] = test system: SNB-75 CNS
[2] = test system: T-47D breast
[3] = test system: PC-3 prostate
[4] = test system: SF-295 CNS
[5] = test system: SK-OV-3 ovarian
[6] = test system: NCI/ADR-RES ovarian
[7] = test system: SF-268 CNS
[8] = test system: SW-620 colon
[9] = test system: NCI-H522 lung
[10] = test system: MCF7 breast
[11] = test system: SR leukemia

SMILES | GI50 [1] | TGI [1] | GI50 [2] | TGI [2] | TGI [3] | TGI [4] | GI50 [5] | TGI [5] | GI50 [6] | TGI [6] | GI50 [7] | TGI [7] | GI50 [8] | TGI [8] | TGI [9] | GI50 [10] | TGI [10] | GI50 [11] | TGI [11]
CN(C)CCOC1(Cc2ccc(Cl)cc2Cl)CCC(C(C)(C)C)CC1 (stereo not drawn) | 2.52 µM | 3.89 µM and 7.39 µM | 1.92 µM and 2.09 µM | 4.42 µM and 4.24 µM | 3.68 µM and 4.1 µM | 3.2 µM and 3.41 µM | 4.79 µM | 4.22 µM and 11 µM | 1.99 µM | 4.52 µM and 3.12 µM | 2.28 µM | 7.89 µM and 6.85 µM | 1.73 µM | 3.84 µM and 4.78 µM | 3.44 µM and 3.85 µM | 1.79 µM | 3.49 µM and 3.65 µM | 1.87 µM | 4.64 µM and 1.47 µM
CCOC(=O)C1=C(C)N(C)C(=S)NC1c1cccc(O)c1 (stereo not drawn) |  | > 100 µM |  | > 100 µM | > 100 µM | > 100 µM |  | > 100 µM |  | 54.9 µM |  | > 100 µM |  | > 100 µM | > 100 µM |  | > 100 µM |  | 57.3 µM
CCCCCC(=O)OCC(=O)[C@H]1[C@H](C)C[C@H]2[C@@H]3C[C@H](F)C4=C/C(=N/OC(=O)c5cccc6c(=O)c7ccccc7[nH]c56)C=C[C@]4(C)[C@H]3[C@@H](O)C[C@@]21C |  | 69 µM |  | 62.1 µM | 53.8 µM | > 100 µM |  | > 100 µM |  | 41.1 µM |  | > 100 µM |  | > 100 µM | 46 µM |  | 54.9 µM |  | 93.3 µM
O=[N+]([O-])/C(Cl)=C(\Nc1ccccc1)C(Cl)=C(Cl)Cl |  | 20.5 µM |  | > 100 µM | > 100 µM | 94 µM |  | > 100 µM |  | 38.5 µM |  | > 100 µM |  |  | > 100 µM |  | 60.4 µM |  | 69.9 µM
COc1cc(/C=C2/SC(c3ccccc3)N(c3ccc(Cl)cc3)C2=O)cc(OC)c1OC (stereo not drawn) |  | > 100 µM |  | > 100 µM | > 100 µM | > 100 µM |  | > 100 µM |  | > 100 µM |  | > 100 µM |  | > 100 µM | > 100 µM |  | > 100 µM |  | > 100 µM
COc1ccc(-c2c3c(n(C4OC(CO)C(O)C(O)C4O)c(=S)c2C#N)CC(C)(C)CC3=O)cc1 (stereo not drawn) |  | > 100 µM |  | > 100 µM | > 100 µM | > 100 µM |  |  |  | > 100 µM |  | > 100 µM |  |  | > 100 µM |  | > 100 µM |  | > 100 µM
CCC(CC)C(=O)OC[n+]1cccc(-c2c(COC(=O)NC(C)C)c(COC(=O)NC(C)C)c3n2CCC3)c1 |  | > 100 µM |  | > 100 µM | > 100 µM | > 100 µM |  | > 100 µM |  | > 100 µM |  | > 100 µM |  | > 100 µM | > 100 µM |  | > 100 µM |  | > 100 µM
CN1CC2=C(NC(=S)NC2c2ccc(Cl)cc2)/C(=C/c2ccc(Cl)cc2)C1 (stereo not drawn) |  | 31.2 µM |  | 32.3 µM | 23.1 µM | 33.8 µM |  | 31.4 µM |  | 43.6 µM |  | 50.4 µM |  | 30.3 µM | 31 µM |  | 68.4 µM |  | 51.5 µM
